From US20100068181A1, “PYRROLO [3, 2-A] PYRIDINE DERIVATIVES FOR INHIBITING KSP KINESIN ACTIVITY” (Schering Corporation, priority 2006, published 2010)

These molecules were tested against T1, KSP (Homo sapiens, UniProt P52732) (assay: KSP inhibitory activity, end-point assay). Conditions: KSP inhibitory activity based on end-point assay; read-out: IC50 Rating.
T1 sequence (P52732 1-1056): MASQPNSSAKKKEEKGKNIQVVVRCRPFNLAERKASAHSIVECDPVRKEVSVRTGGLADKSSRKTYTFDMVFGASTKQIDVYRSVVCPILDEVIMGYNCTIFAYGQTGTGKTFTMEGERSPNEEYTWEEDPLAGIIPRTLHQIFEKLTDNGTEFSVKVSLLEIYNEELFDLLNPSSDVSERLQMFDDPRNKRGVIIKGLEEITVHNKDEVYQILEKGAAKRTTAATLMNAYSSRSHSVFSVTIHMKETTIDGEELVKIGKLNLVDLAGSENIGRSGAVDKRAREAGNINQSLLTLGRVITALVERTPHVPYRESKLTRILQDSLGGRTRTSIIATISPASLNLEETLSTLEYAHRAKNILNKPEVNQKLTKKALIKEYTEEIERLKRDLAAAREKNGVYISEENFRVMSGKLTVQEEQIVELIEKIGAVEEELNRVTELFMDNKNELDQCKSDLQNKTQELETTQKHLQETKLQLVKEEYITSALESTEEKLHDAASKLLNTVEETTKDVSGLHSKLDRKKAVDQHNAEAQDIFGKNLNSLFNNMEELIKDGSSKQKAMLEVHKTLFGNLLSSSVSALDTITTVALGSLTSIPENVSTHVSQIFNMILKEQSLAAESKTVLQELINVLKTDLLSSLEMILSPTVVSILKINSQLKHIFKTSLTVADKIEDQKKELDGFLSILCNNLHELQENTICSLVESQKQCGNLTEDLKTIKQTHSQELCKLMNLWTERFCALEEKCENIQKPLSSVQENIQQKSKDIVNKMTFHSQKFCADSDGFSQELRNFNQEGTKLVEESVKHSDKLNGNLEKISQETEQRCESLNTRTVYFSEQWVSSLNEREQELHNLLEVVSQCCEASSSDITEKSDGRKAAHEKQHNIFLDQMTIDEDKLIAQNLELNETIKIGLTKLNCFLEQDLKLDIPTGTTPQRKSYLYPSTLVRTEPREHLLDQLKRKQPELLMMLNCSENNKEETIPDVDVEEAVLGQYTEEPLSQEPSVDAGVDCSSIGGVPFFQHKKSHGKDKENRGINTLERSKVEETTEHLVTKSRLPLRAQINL
Type: biochemical
Description: The inhibitory activity of the present compounds towards KSP may be assayed by methods known in the art, for example, by using the methods as described in the examples.

SMILES | IC50
CC(C)(C)[C@@H]1CCc2nc3cc(C(N)=O)[nH]c3cc2C1 (single isomer, unassigned) [Example 21A] | < 100 nM
CC(C)(C)[C@H]1CCc2nc3cc(C(N)=O)[nH]c3cc2C1 (single isomer, unassigned) [Example 21B] | 100 to 1000 nM
CNC(=O)c1cc2nc3c(cc2[nH]1)C[C@H](C(C)(C)C)CC3 (single isomer, unassigned) [Example 22A] | < 100 nM
CNC(=O)c1cc2nc3c(cc2[nH]1)C[C@@H](C(C)(C)C)CC3 (single isomer, unassigned) [Example 22B] | 100 to 1000 nM
CCOC(=O)c1cc2nc3c(cc2[nH]1)CC(C(C)(C)C)CC3 (stereo not shown) [Example 1] | 1000 to 10000 nM
CC(C)(C)C1CCc2nc3cc(C(N)=O)[nH]c3cc2C1 (stereo not shown) [Example 2] | < 100 nM
CNC(=O)c1cc2nc3c(cc2[nH]1)CC(C(C)(C)C)CC3 (stereo not shown) [Example 3] | < 100 nM
CCNC(=O)c1cc2nc3c(cc2[nH]1)CC(C(C)(C)C)CC3 (stereo not shown) [Example 4] | 100 to 1000 nM
CC(C)(C)C1CCc2nc3cc(C(=O)NCCCCN)[nH]c3cc2C1 (stereo not shown) [Example 5] | 100 to 1000 nM
CC(C)(C)C1CCc2nc3cc(C(=O)NCCN)[nH]c3cc2C1 (stereo not shown) [Example 6] | 100 to 1000 nM
CC(C)(C)C1CCc2nc3cc(C(=O)NCCO)[nH]c3cc2C1 (stereo not shown) [Example 7] | 100 to 1000 nM
CC(C)(C)C1CCc2nc3cc(C(=O)NCCCN)[nH]c3cc2C1 (stereo not shown) [Example 8] | 1000 to 10000 nM
CC(C)(C)C1CCc2nc3cc(C(=O)NCCCO)[nH]c3cc2C1 (stereo not shown) [Example 9] | 100 to 1000 nM
CC(C)(C)C1CCc2nc3cc(C(=O)NCCCCCN)[nH]c3cc2C1 (stereo not shown) [Example 10] | 100 to 1000 nM
CC(C)(C)C1CCc2nc3cc(C(=O)NCCCCCO)[nH]c3cc2C1 (stereo not shown) [Example 11] | 1000 to 10000 nM
CC(C)(C)C1CCc2nc3cc(C(=O)NCCCCCCO)[nH]c3cc2C1 (stereo not shown) [Example 12] | > 10000 nM
CC(C)(C)C1CCc2nc3cc(C(=O)NCCCCO)[nH]c3cc2C1 (stereo not shown) [Example 13] | 1000 to 10000 nM
CC(C)(C)C1CCc2nc3cc(C(=O)NCCCCCCN)[nH]c3cc2C1 (stereo not shown) [Example 14] | 100 to 1000 nM
CC(C)(C)C1CCc2nc3cc(C(=O)NCCc4ccc(O)cc4)[nH]c3cc2C1 (stereo not shown) [Example 15] | > 10000 nM
CN1CCN(C(=O)c2cc3nc4c(cc3[nH]2)CC(C(C)(C)C)CC4)CC1 (stereo not shown) [Example 16] | > 10000 nM
CC(C)(C)C1CCc2nc3cc(C(=O)NN)[nH]c3cc2C1 (stereo not shown) [Example 17] | < 100 nM
CC(C)(C)C1CCc2nc3cc(C(=O)NCc4ccccc4)[nH]c3cc2C1 (stereo not shown) [Example 18] | > 10000 nM
CC(C)(C)C1CCc2nc3cc(C(=O)NCc4cccnc4)[nH]c3cc2C1 (stereo not shown) [Example 19] | > 10000 nM
C[C@@H](CO)NC(=O)c1cc2nc3c(cc2[nH]1)CC(C(C)(C)C)CC3 (stereo partly shown) [Example 20] | 1000 to 10000 nM
CC(C)(C)C1CCc2nc3cc(CO)[nH]c3cc2C1 (stereo not shown) [Example 23] | < 100 nM

SMILES | IC50
CC(C)(C)C1CCc2nc3cc(CN)[nH]c3cc2C1 (stereo not shown) [Example 25] | 100 to 1000 nM
CC(C)(C)C1CCc2nc3c([N+](=O)[O-])c(C(N)=O)[nH]c3cc2C1 (stereo not shown) [Example 26] | > 10000 nM
CC(C)(C)C1CCc2nc3c(N)c(C(N)=O)[nH]c3cc2C1 (stereo not shown) [Example 27] | 100 to 1000 nM
C=Cc1cc2nc3c(cc2[nH]1)CC(C(C)(C)C)CC3 (stereo not shown) [Example 28] | 1000 to 10000 nM
CC(O)c1cc2nc3c(cc2[nH]1)CC(C(C)(C)C)CC3 (stereo not shown) [Example 29] | 100 to 1000 nM
CC(=O)c1cc2nc3c(cc2[nH]1)CC(C(C)(C)C)CC3 (stereo not shown) [Example 30] | 100 to 1000 nM
CC(=NO)c1cc2nc3c(cc2[nH]1)CC(C(C)(C)C)CC3 (stereo not shown) [Example 31] | > 10000 nM
CC(C)(C)C1CCc2nc3cc(COC(=O)c4ccccc4)[nH]c3cc2C1 (stereo not shown) [Example 32] | > 10000 nM
CC(C)(C)C1CCc2nc3cc(CC#N)[nH]c3cc2C1 (stereo not shown) [Example 33] | 1000 to 10000 nM
CCOC(=O)c1[nH]c2cc3c(nc2c1Br)CCC(C(C)(C)C)C3 (stereo not shown) [Example 34] | > 10000 nM
CC(C)(C)C1CCc2nc3c(Br)c(C(N)=O)[nH]c3cc2C1 (stereo not shown) [Example 35] | > 10000 nM
Cc1[nH]c2cc3c(nc2c1CCO)CCC(C(C)(C)C)C3 (stereo not shown) [Example 36] | > 10000 nM
CC(C)(C)C1CCc2nc3c(CCO)c(CO)[nH]c3cc2C1 (stereo not shown) [Example 37] | > 10000 nM
CCOC(=O)c1[nH]c2cc3c(nc2c1/C=C/C(=O)OC)CCC(C(C)(C)C)C3 (stereo not shown) [Example 39] | > 10000 nM
CC(C)(C)C1CCc2nc3c(CCC(N)=O)c(C(N)=O)[nH]c3cc2C1 (stereo not shown) [Example 40] | 1000 to 10000 nM
CC(C)(C)C1CCc2nc3c(CCC#N)c(C#N)[nH]c3cc2C1 (stereo not shown) [Example 41] | 1000 to 10000 nM
CCOC(=O)c1cc2nc3c(cc2n1C(C)=O)CC(C(C)(C)C)CC3 (stereo not shown) [Example 42] | > 10000 nM
CC(C)(C)C1CCc2nc3cc(/C=N/NC(N)=S)[nH]c3cc2C1 (stereo not shown) [Example 43] | > 10000 nM
CC(=O)NC(Cc1c(C(N)=O)[nH]c2cc3c(nc12)CCC(C(C)(C)C)C3)C(N)=O (stereo not shown) [Example 44] | > 10000 nM
CCOC(=O)c1[nH]c2cc3c(nc2c1C)CCC(C(C)(C)C)C3 (stereo not shown) [Example 45] | > 10000 nM
Cc1c(C(N)=O)[nH]c2cc3c(nc12)CCC(C(C)(C)C)C3 (stereo not shown) [Example 46] | > 10000 nM
CCOC(=O)c1[nH]c2cc3c(nc2c1CC)CCC(C(C)(C)C)C3 (stereo not shown) [Example 47] | > 10000 nM
CCc1c(C(N)=O)[nH]c2cc3c(nc12)CCC(C(C)(C)C)C3 (stereo not shown) [Example 48] | 1000 to 10000 nM
CCOC(=O)c1[nH]c2cc3c(nc2c1CCCO)CCC(C(C)(C)C)C3 (stereo not shown) [Example 49] | > 10000 nM
CC(C)(C)C1CCc2nc3c(CCCO)c(C(N)=O)[nH]c3cc2C1 (stereo not shown) [Example 50] | 100 to 1000 nM

SMILES | IC50
CCOC(=O)c1[nH]c2cc3c(nc2c1CCCN)CCC(C(C)(C)C)C3 (stereo not shown) [Example 51] | > 10000 nM
CC(C)(C)OC(=O)NCCCc1c(C(N)=O)[nH]c2cc3c(nc12)CCC(C(C)(C)C)C3 (stereo not shown) [Example 52] | > 10000 nM
CC(C)(C)C1CCc2nc3c(CCCN)c(C(N)=O)[nH]c3cc2C1 (stereo not shown) [Example 53] | > 10000 nM
CCOC(=O)c1[nH]c2cc3c(nc2c1CC(O)CO)CCC(C(C)(C)C)C3 (stereo not shown) [Example 54] | > 10000 nM
CC(C)(C)C1CCc2nc3c(CC(O)CO)c(C(N)=O)[nH]c3cc2C1 (stereo not shown) [Example 55] | > 10000 nM
CC(C)(C)C1CCc2nc3c(C#CCCO)c(C(N)=O)[nH]c3cc2C1 (stereo not shown) [Example 56] | > 10000 nM
CC(C)(C)C1CCc2nc3c(CCCCO)c(C(N)=O)[nH]c3cc2C1 (stereo not shown) [Example 57] | 100 to 1000 nM
CC(C)(C)C1CCc2nc3c(C#CCCCO)c(C(N)=O)[nH]c3cc2C1 (stereo not shown) [Example 58] | > 10000 nM
CC(C)(C)C1CCc2nc3c(CCCCCO)c(C(N)=O)[nH]c3cc2C1 (stereo not shown) [Example 59] | 1000 to 10000 nM
CCc1c(C(=O)NCCN)[nH]c2cc3c(nc12)CCC(C(C)(C)C)C3 (stereo not shown) [Example 60] | 100 to 1000 nM
CCOC(=O)c1[nH]c2cc3c(nc2c1NC(=O)COC(C)=O)CCC(C(C)(C)C)C3 (stereo not shown) [Example 62] | > 10000 nM
CC(C)(C)C1CCc2nc3c(NC(=O)CO)c(C(N)=O)[nH]c3cc2C1 (stereo not shown) [Example 63] | 1000 to 10000 nM
CCOC(=O)c1[nH]c2cc3c(nc2c1NCCOC)CCC(C(C)(C)C)C3 (stereo not shown) [Example 64] | > 10000 nM
CCOC(=O)c1[nH]c2cc3c(nc2c1NCCO)CCC(C(C)(C)C)C3 (stereo not shown) [Example 65] | > 10000 nM
CC(C)(C)C1CCc2nc3c(NCCO)c(C(N)=O)[nH]c3cc2C1 (stereo not shown) [Example 66] | 1000 to 10000 nM
CCOC(=O)c1[nH]c2cc3c(nc2c1NCCCO)CCC(C(C)(C)C)C3 (stereo not shown) [Example 67] | > 10000 nM
CC(C)(C)C1CCc2nc3c(NS(C)(=O)=O)c(C(N)=O)[nH]c3cc2C1 (stereo not shown) [Example 68] | 1000 to 10000 nM
CCOC(=O)c1c(Cl)[nH]c2cc3c(nc12)CCC(C(C)(C)C)C3 (stereo not shown) [Example 69] | > 10000 nM
CCOC(=O)c1c[nH]c2cc3c(nc12)CCC(C(C)(C)C)C3 (stereo not shown) [Example 70] | > 10000 nM
COC(=O)c1c[nH]c2cc3c(nc12)CCC(C(C)(C)C)C3 (stereo not shown) [Example 71] | > 10000 nM
CC(C)(C)C1CCc2nc3c(C(=O)NCCO)c[nH]c3cc2C1 (stereo not shown) [Example 72] | 1000 to 10000 nM
CC(C)(C)C1CCc2nc3c(C(=O)NCCN)c[nH]c3cc2C1 (stereo not shown) [Example 73] | > 10000 nM
CC(C)(C)C1CCc2nc3c(C(=O)NCCN4CCNCC4)c[nH]c3cc2C1 (stereo not shown) [Example 74] | > 10000 nM
CC(C)(C)C1CCc2nc3c(C(=O)NCc4cccnc4)c[nH]c3cc2C1 (stereo not shown) [Example 75] | > 10000 nM

Same assay, conditions: numerical IC50 values for representative compounds; read-out: IC50

SMILES | IC50
CC(C)(C)[C@@H]1CCc2nc3cc(C(N)=O)[nH]c3cc2C1 (single isomer, unassigned) [Example 21A] | 30 nM
CNC(=O)c1cc2nc3c(cc2[nH]1)C[C@H](C(C)(C)C)CC3 (single isomer, unassigned) [Example 22A] | 20 nM
CC(C)(C)C1CCc2nc3cc(C(N)=O)[nH]c3cc2C1 (stereo not shown) [Example 2] | 30 nM
CNC(=O)c1cc2nc3c(cc2[nH]1)CC(C(C)(C)C)CC3 (stereo not shown) [Example 3] | 50 nM
CC(C)(C)C1CCc2nc3cc(CO)[nH]c3cc2C1 (stereo not shown) [Example 23] | 40 nM
